Test results reported in patent US9706790B2, “Compounds, compositions, and methods for reducing or eliminating bitter taste” (CHROMOCELL CORPORATION, priority 2011, dated 2017).

System: bitter taste of KCl
Assay: KCl Latin Square-2AFC taste test, macaroni and cheese (chew and spit)
Type: in vivo, humans
Details: KCl 5.7% in cheese powder (0.34% in final prepared food product); for # of panelists discerning decrease in bitter taste/# of panelists tested: versus KCl standard
Procedure: The taste test panelists used in the following examples were screened based upon and selected for their ability to perceive the bitter taste associated with potassium chloride. Only panelists capable of perceiving bitter taste participated in the following taste tests.
The effect of the test compounds on the perception of the bitter taste of KCl in prepared food products in humans was evaluated using a “chew and spit” test using a Latin Square-2AFC testing method as follows.
Edible KCl food products (“KCl test food product”) were prepared according to the following instructions. 6 cups water were boiled in stainless steel pot to a ‘rolling’ boil. Once a rolling boil was achieved, 166.5 grams of pasta were added to the boiling water. The pasta was stirred briefly to prevent the pasta from sticking to the pot. The pasta was boiled for 8.5 minutes and drained in a stainless steel colander. The pasta was shaken (approximately 15 times back and forth and twice up and down) to remove excess water. The drained pasta was returned to the stainless steel pot, and 56 grams (4 tablespoons) Land O'Lakes™ unsalted butter was added to the hot pasta. When the unsalted butter was half melted, 39.5 grams cheese powder (containing the KCl) was added in the center of the pasta. Separately, test compound was diluted in 1 ml of propylene glycol (PG; alternatively the test compound may also be diluted in a milk stock solution or a butter oil stock solution) and the resulting solution added to 99 ml of milk. 63 ml of the PG/milk solution was poured around cheese powder and gently folded into the pasta with a stainless steel spoon in order to avoid cheese clumping on spoon. KCl standards were similarly prepared by adding milk without any test compound.
The panelists tasted portions by chewing and spitting. In order to eliminate any effects of sample order, a complete Latin Square design was employed so that each possible order of sample presentation was utilized across subjects. Each sample was tested in several discrete taste test experiments. […]

## C/C(=C\CO)CCCC(C)CCCC(C)CCCC(C)C (stereo not drawn) [Compound 5]
  Conc. at Which At Least 50% of Panelists Discerned Decrease in Bitter Taste: 10 ppm
Compound at 10 ppm
  # of panelists discerning decrease in bitter taste/# of panelists tested: 10 (28/50)
Compound at 20 ppm
  # of panelists discerning decrease in bitter taste/# of panelists tested: 20 (20/49)
